We go through one molecule from ChEMBL document CHEMBL5532720, “A Potent Solution for Tumor Growth and Angiogenesis Suppression via an ELR+CXCL-CXCR1/2 Pathway Inhibitor” (ACS Med Chem Lett, 2024).

The test system of one data set is A498. Briefly: Inhibition of CXCL8-induced cell migration in human A498 cells at 0.5 uM incubated for 24 hrs by crystal violet staining based analysis relative to control. Format: functional.
Data set [1] can be described thus: Genotoxicity in Salmonella typhimurium TA98 upto 100 uM in presence of S9 fraction by Ames test. The note with it: salmonella enterica subsp. enterica serovar typhimurium, s9, 100 µM. Format: toxicity, subcellular. (The Ames test uses bacterial strains that need an amino acid and regain growth without it when mutated back.)
In data set [2] the target is Mitogen-activated protein kinase kinase kinase kinase 4 (Homo sapiens) (UniProt O95819). The experiment in a line: Inhibition of MAP4K4 (unknown origin) at 10 uM in presence of ATP at Km concentration.
Sequence of Mitogen-activated protein kinase kinase kinase kinase 4 (Homo sapiens) (O95819 2-1239 limits assumed): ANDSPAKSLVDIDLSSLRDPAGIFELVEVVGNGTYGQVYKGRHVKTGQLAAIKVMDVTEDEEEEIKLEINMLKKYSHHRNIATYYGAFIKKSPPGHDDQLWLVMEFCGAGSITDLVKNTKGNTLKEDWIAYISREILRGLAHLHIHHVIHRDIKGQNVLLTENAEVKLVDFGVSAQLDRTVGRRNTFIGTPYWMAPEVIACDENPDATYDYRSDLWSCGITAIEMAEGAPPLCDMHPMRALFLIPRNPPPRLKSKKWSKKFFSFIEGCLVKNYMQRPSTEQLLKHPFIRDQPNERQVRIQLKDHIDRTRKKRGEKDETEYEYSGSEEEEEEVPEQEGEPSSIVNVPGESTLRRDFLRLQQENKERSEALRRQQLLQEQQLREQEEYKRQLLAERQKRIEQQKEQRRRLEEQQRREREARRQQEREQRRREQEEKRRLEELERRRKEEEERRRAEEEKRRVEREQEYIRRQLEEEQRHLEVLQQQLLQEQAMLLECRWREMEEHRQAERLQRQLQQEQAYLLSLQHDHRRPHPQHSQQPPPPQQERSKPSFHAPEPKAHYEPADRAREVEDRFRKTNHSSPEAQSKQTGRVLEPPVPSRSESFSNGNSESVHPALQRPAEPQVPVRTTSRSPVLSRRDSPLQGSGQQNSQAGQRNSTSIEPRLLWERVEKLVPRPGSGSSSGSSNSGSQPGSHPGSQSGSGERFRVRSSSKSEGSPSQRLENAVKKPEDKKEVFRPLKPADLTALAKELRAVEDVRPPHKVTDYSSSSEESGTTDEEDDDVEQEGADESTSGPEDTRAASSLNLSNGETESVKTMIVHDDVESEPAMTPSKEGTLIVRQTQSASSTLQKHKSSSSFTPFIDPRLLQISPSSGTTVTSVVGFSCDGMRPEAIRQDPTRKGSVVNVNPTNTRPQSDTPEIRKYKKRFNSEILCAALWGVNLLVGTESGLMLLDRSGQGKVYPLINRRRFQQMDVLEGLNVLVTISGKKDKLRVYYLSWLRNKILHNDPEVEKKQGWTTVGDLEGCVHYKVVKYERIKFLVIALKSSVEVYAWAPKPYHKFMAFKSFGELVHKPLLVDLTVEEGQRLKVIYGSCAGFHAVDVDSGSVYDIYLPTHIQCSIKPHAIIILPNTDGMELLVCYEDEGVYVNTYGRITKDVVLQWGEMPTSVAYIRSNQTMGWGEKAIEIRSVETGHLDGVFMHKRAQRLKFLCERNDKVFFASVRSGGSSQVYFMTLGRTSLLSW
Data set [3] has as its target Phosphorylase b kinase gamma catalytic chain, liver/testis isoform (Homo sapiens) (UniProt P15735). The experiment in a line: Inhibition of PHKG2 (unknown origin) at 10 uM in presence of ATP at Km concentration.
In data set [4] the target is Phosphatidylinositol 4-kinase beta (Homo sapiens) (UniProt Q9UBF8). Briefly: Inhibition of PI4KB (unknown origin) at 10 uM in presence of ATP at Km concentration.
Sequence of Phosphatidylinositol 4-kinase beta (Homo sapiens) (Q9UBF8 2-816 limits assumed): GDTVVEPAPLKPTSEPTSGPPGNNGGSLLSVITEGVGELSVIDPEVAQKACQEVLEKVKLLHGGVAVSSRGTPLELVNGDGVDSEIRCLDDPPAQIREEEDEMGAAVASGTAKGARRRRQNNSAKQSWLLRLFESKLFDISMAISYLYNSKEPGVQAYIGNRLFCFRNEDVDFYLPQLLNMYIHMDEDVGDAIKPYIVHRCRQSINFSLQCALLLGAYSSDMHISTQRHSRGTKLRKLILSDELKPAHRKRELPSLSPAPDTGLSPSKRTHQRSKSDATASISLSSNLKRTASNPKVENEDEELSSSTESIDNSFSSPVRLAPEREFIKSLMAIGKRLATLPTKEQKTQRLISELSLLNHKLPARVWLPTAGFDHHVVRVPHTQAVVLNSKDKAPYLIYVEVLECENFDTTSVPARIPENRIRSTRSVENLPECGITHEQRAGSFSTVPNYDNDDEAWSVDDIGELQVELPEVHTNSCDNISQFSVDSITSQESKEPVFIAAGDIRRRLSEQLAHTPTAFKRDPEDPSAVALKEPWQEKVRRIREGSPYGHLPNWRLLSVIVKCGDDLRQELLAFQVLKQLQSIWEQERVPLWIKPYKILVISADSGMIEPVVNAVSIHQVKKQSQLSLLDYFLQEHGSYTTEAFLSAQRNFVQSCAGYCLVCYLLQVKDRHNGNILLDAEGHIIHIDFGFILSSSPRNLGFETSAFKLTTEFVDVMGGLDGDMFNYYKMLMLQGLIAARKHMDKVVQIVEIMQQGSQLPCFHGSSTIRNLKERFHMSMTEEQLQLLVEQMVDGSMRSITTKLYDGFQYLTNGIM
Data set [5] concerns Cisplatin and radiotherapy resistant CAL33RR. Briefly: Inhibition of CXCL8-dependent cell migration in human Cisplatin and radiotherapy resistant CAL33RR cells at 0.5 uM incubated for 24 hrs by Boyden chamber based crystal violet staining analysis. Format: functional.
The test system of another data set is TIME. Briefly: Inhibition of CXCL8-dependent cell migration in human TIME cells at 0.5 uM incubated for 24 hrs by crystal violet staining based analysis. It is filed as functional.
A short description of data set [6]: Clearance in NOD SCID mouse at 1 mg/kg, iv. Format: ADME, organism-based. The following applies: in vivo.
Data set [7] is described as follows: Oral bioavailability in NOD SCID mouse at 50 mg/kg. It is filed as ADME, organism-based. The note with it: in vivo.

The source made the active and inactive calls. The calls are words filed in the database; no cut-off is given here.

Sequence of Phosphorylase b kinase gamma catalytic chain, liver/testis isoform (Homo sapiens) (P15735 whole entry, canonical isoform): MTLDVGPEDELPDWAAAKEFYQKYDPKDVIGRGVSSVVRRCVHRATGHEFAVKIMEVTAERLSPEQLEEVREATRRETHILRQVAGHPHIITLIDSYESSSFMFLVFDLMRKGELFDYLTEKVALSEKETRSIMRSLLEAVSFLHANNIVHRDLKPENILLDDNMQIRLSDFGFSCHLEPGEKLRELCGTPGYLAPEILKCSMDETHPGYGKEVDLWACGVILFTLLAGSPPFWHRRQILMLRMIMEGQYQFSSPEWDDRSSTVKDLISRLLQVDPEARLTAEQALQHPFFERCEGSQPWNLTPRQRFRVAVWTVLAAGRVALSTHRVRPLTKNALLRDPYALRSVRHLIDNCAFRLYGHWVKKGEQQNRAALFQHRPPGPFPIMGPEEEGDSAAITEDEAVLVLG

`O=C(Nc1cc(Cl)cc(Cl)c1)Nc1nc2ccc([N+](=O)[O-])cc2s1` had an inhibition at 0.5 µM in the data set with A498 of over 50%. Further, in data set [1], the Activity entry is on record as “Non-Toxic”. The inhibition result in [2], in data set [3] and in [4] was “inactive” each time. Further, the inhibition result (in data set [5]; in the data set on TIME) was “Active” each time. This molecule returned a clearance in data set [6] of 39.3 mL/min/kg. This molecule also registered a bioavailability in data set [7] of 39%.

A word on the inhibition: it is the percentage by which the read-out fell short of the control. The clearance is the volume of plasma or blood freed of the substance per unit of time. In general, bioavailability refers to the share of a dose that reaches the circulation, judged against a reference dose that is usually intravenous. Higher therefore signals good availability.
